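Dose response: 5 concentrations. Exposure: 48 h. Format: 96-well plates. Endpoint: linear interpolation; highest concentration if not reached. At the TGI there is no net growth.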
Legend:
Assay in all cases: NCI anticancer screen, dose series, 48 h
KM12 colon = test system: KM12 colon
MCF7 breast = test system: MCF7 breast
SNB-19 CNS = test system: SNB-19 CNS
BT-549 breast = test system: BT-549 breast
MDA-MB-435 = test system: MDA-MB-435
RPMI-8226 leukemia = test system: RPMI-8226 leukemia
HCT-116 colon = test system: HCT-116 colon
HCC-2998 colon = test system: HCC-2998 colon
CCRF-CEM leukemia = test system: CCRF-CEM leukemia
SK-MEL-2 melanoma = test system: SK-MEL-2 melanoma
MDA-N = test system: MDA-N
LOX IMVI melanoma = test system: LOX IMVI melanoma
NCI-H522 lung = test system: NCI-H522 lung
HOP-92 NSCLC = test system: HOP-92 NSCLC
SNB-75 CNS = test system: SNB-75 CNS
HOP-62 NSCLC = test system: HOP-62 NSCLC
U251 CNS = test system: U251 CNS
COLO 205 colon = test system: COLO 205 colon
MDA-MB-231 breast = test system: MDA-MB-231 breast

SMILES	TGI (KM12 colon)	TGI (MCF7 breast)	TGI (SNB-19 CNS)	TGI (BT-549 breast)	TGI (MDA-MB-435)	TGI (RPMI-8226 leukemia)	TGI (HCT-116 colon)	TGI (HCC-2998 colon)	TGI (CCRF-CEM leukemia)	TGI (SK-MEL-2 melanoma)	TGI (MDA-N)	TGI (LOX IMVI melanoma)	TGI (NCI-H522 lung)	TGI (HOP-92 NSCLC)	TGI (SNB-75 CNS)	TGI (HOP-62 NSCLC)	TGI (U251 CNS)	TGI (COLO 205 colon)	TGI (MDA-MB-231 breast)
CCCCn1c(C)c(C(=O)OCC)c2cc(OCc3ccc(C(=O)Nn4c(C)ccc4C)cc3)c(Br)cc21	> 100 µM	> 100 µM	> 100 µM	> 100 µM	> 100 µM	> 100 µM	> 100 µM	> 100 µM	> 100 µM	> 100 µM	> 100 µM	> 100 µM	> 100 µM	> 100 µM	> 100 µM	> 100 µM	> 100 µM	> 100 µM	–
CC1=C2C3=C(C)C(=O)C(C)(C)CC[C@@]3(C)[C@]2(C)CCC(C)(C)C1=O	> 100 µM	> 100 µM	> 100 µM	> 100 µM	> 100 µM	> 100 µM	> 100 µM	–	> 100 µM	–	> 100 µM	> 100 µM	> 100 µM	–	> 100 µM	> 100 µM	> 100 µM	> 100 µM	> 100 µM
O=C1NNC(=O)C2C3c4ccccc4C(c4ccccc43)C12 (stereo not drawn)	> 100 µM	> 100 µM	> 100 µM	> 100 µM	–	> 100 µM	> 100 µM	> 100 µM	> 100 µM	–	> 100 µM	> 100 µM	–	–	> 100 µM	> 100 µM	> 100 µM	> 100 µM	> 100 µM
Cc1ccccc1Nc1cn(COCc2ccccc2)c(=O)[nH]c1=O	> 100 µM	> 100 µM	> 100 µM	66.2 µM	> 100 µM	> 100 µM	> 100 µM	> 100 µM	> 100 µM	–	> 100 µM	> 100 µM	> 100 µM	> 100 µM	–	> 100 µM	> 100 µM	> 100 µM	–
CSc1nc(Cl)c2c(n1)Sc1nc3cc4c(cc3n1C2O)OCO4 (stereo not drawn)	> 100 µM	> 100 µM	> 100 µM	> 31.3 µM	> 100 µM	> 20.8 µM	> 47.4 µM	> 60.9 µM	> 100 µM	> 64.4 µM	36.1 µM	0.746 µM	0.639 µM	–	> 100 µM	16.7 µM	> 50.1 µM	0.686 µM	> 83.3 µM
CCOc1cc(NC(C)=O)ccc1C(=O)NN1C(=O)C(Oc2ccccc2)C1c1ccc(O)c(OC)c1 (stereo not drawn)	> 100 µM	> 100 µM	> 100 µM	> 100 µM	> 100 µM	51.6 µM	> 100 µM	–	54.5 µM	81.2 µM	> 100 µM	> 100 µM	–	> 100 µM	> 100 µM	> 100 µM	> 100 µM	83.9 µM	> 100 µM
CCCN=C(NC(=O)c1ccc(Cl)cc1)SC	> 100 µM	> 100 µM	> 100 µM	89.8 µM	> 100 µM	> 100 µM	> 100 µM	> 100 µM	> 100 µM	> 100 µM	> 100 µM	> 100 µM	> 100 µM	–	97.2 µM	> 100 µM	> 100 µM	> 100 µM	> 100 µM
Cn1c(=O)c2c(nc(NCCCCl)n2CC(=O)NCCCCl)n(C)c1=O	> 100 µM	–	> 100 µM	> 100 µM	> 100 µM	> 100 µM	> 100 µM	> 100 µM	> 100 µM	> 100 µM	> 100 µM	> 100 µM	> 100 µM	> 100 µM	> 100 µM	> 100 µM	> 100 µM	> 100 µM	> 100 µM
Nc1nc(Cl)cc(NCC2(CO)COC2)n1	> 100 µM	> 100 µM	–	> 100 µM	> 100 µM	> 100 µM	> 100 µM	> 100 µM	> 100 µM	> 100 µM	> 100 µM	> 100 µM	> 100 µM	–	> 100 µM	> 100 µM	> 100 µM	> 100 µM	> 100 µM
CNC(=O)N1CCN(C(=O)NC)CCN(C(=O)NC)CC1	–	> 100 µM	> 100 µM	> 100 µM	–	> 100 µM	> 100 µM	> 100 µM	> 100 µM	> 100 µM	> 100 µM	> 100 µM	> 100 µM	> 100 µM	> 100 µM	> 100 µM	> 100 µM	> 100 µM	> 100 µM
O=C(CCc1ccc(O)cc1)NCCc1ccc(O)cc1	> 100 µM	> 100 µM	> 100 µM	> 100 µM	> 100 µM	–	> 100 µM	> 100 µM	> 100 µM	> 100 µM	> 100 µM	> 100 µM	> 100 µM	> 100 µM	–	> 100 µM	> 100 µM	> 100 µM	> 100 µM
CC/C(=N/O)c1ccc(Br)s1	> 100 µM	> 100 µM	> 100 µM	> 100 µM	> 100 µM	–	> 100 µM	> 100 µM	97.1 µM	> 100 µM	> 100 µM	> 100 µM	> 100 µM	> 100 µM	> 100 µM	> 100 µM	> 100 µM	> 100 µM	> 100 µM
O=c1[nH]nc(-c2cccc(Br)c2)[nH]1	> 100 µM	> 100 µM	> 100 µM	> 100 µM	> 100 µM	> 100 µM	> 100 µM	> 100 µM	> 100 µM	> 100 µM	> 100 µM	> 100 µM	> 100 µM	> 100 µM	> 100 µM	> 100 µM	> 100 µM	> 100 µM	–

From PubChem BioAssay (NCI)
